According to US9714245B2, “Carboline compounds usable in the treatment of neurodegenerative diseases” (ALZPROTECT, priority 2013, dated 2017):

Experiments:
secreted Aβ1-42 = experiment: Aβ1-42 secretion by APP-transfected neuroblastoma cells (ELISA); format: cell-based; details: Homo sapiens, Neuroblastoma cell; SKNSH-SYSY APPWT cells; concentration decreasing secreted Aβ1-42 to 50% of basal amount
Protocol: Cell Cultures and Transfections to Test Activity on Aβ1-40 and Aβ1-42 Secretion
Human neuroblastoma cell line SKNSH-SYSY (ATCC® Catalog No. CRL-2266™), HEK (ATCC® CRL-1573™) and COS-1 (ATCC® CRL-1650™) cells were maintained in Dulbecco's modified Eagle medium (DMEM, GIBCO BRL) supplemented with 10% fetal calf serum, 2 mM L-glutamine, 1 mM non-essential amino acids, 50 units/ml penicillin/streptomycin (Invitrogen, France) in a 5% CO2 humidified incubator at 37° C. APP695 cDNA was subcloned into eukaryotic expression vector pcDNA3 (Invitrogen), allowing for a G418 (Invitrogen) selection of clones. This APP cDNA coding for the 695 amino acid long isoform was transfected into SKNSH-SYSY cells using the ethyleneimine polymer ExGen 500 (Euromedex) according to the manufacturer's instructions. The cells expressing APP (SKNSH-SYSY APP^WT) were selected by the addition of 200 μg/ml G418 in the cell medium. To quantify AR which released in the cell culture medium, the collected medium was spun at 200×g to eliminate the cell debris. The concentrations of secreted Aâ1-40 and Aβ1-42 were determined using the Human Aβ (1-40) Assay Kit (IBL) or the INNOTEST™ beta-Amyloid (1-42) ELISA Kit (Innogenetics), according to manufacturer's instructions. The results were expressed as IC50, i.e. the concentration able to decrease to 50% the basal amount of secreted Aβ peptide 1-40 and 1-42.

[1] = Cytotoxicity evaluation (MTS assay); format: cell-based, Human; details: human, SY5Y-APPWT neuroblastoma cells (expressing APP); SY5Y-APPWT cells, 24 h treatment, MTS
Protocol: Human neuroblastoma cell line SY5Y-APP^WT was used to assess the cytotoxic effects of each compound. SY5Y-APP^WT cells were seeded at 20000 cells/well onto 96-well plates and were cultured in Dulbecco's modified Eagle medium (DMEM, Invitrogen) supplemented with 10% fetal calf serum (PAA), 2 mM L-glutamine (Invitrogen), 1 mM non-essential amino acids (Invitrogen), 50 units/ml penicillin/streptomycin (Invitrogen), and 200 μg G418=geneticin (Invitrogen) (selection for cells expressing APP) in a 5% CO2 humidified incubator at 37° C. After 24 h, the cells were washed and incubated with the compound at 0.1; 0.3; 1; 3; 10; 30 and 100 μM or with DMSO as control diluted in the same culture medium at 37° C. in 5% CO2. After 24 h of treatment, cytotoxicity was determined by using colorimetric MTS assay (CellTiter 96® Aqueous One Solution Cell Proliferation Assay-MTS Promega) according to the protocol of the manufacturer. Absorbance was read at 490 nm and results were expressed as % from control condition considered as 100%.

[2] = target: T1, HIS-tagged valosin-containing protein/p97 (VCP/p97) (Homo sapiens, UniProt P55072); experiment: VCP interaction assay (competition with biotinylated probe 4.7); format: binding; details: compound 60 μM against biotinylated probe 4.7 20 μM
T1 construct: purchased TebuBio
Protocol: Physical interaction between HIS-tagged valosin-containing protein/p97 (VCP/p97) (TebuBio) and biotinylated probe 4.7 was investigated by Enzyme-Linked Assay (ELA) based on HIS-Select® High Sensitivity Nickel coated plates, used following manufacturer's recommendations (Sigma Aldrich). Other chemical compounds were tested in competition with the biotinylated probe 4.7 in this system. Briefly, nickel beads were incubated overnight at 4° C. with 2% casein blocking solution. After a three-time rinse with wash buffer (0.05% Tween20 in phosphate buffer saline), HIS-tagged VCP/p97 protein (5 μg/ml in PBS) was incubated with nickel beads for 90 min at 25° C. Then, the plate was washed three times. Chemical compounds (60 μM) were incubated 10 min at 25° C. before addition of biotinylated probe 4.7 (20 μM) 30 min at 25° C. After five washes, streptavidin-peroxidase (2 μg/ml) was added during 1 h at 25° C., followed by the peroxidase substrate addition 30 min at RT. Reaction was stopped with 0.5M H2SO4 solution and the optical density was read at 450 nm using a microplate reader (VICTOR X4 Wallac, 2030-0040, PerkinElmer). Competition efficiency was quantified by the loss of signal compared to the control condition.

T1 sequence (P55072 whole entry): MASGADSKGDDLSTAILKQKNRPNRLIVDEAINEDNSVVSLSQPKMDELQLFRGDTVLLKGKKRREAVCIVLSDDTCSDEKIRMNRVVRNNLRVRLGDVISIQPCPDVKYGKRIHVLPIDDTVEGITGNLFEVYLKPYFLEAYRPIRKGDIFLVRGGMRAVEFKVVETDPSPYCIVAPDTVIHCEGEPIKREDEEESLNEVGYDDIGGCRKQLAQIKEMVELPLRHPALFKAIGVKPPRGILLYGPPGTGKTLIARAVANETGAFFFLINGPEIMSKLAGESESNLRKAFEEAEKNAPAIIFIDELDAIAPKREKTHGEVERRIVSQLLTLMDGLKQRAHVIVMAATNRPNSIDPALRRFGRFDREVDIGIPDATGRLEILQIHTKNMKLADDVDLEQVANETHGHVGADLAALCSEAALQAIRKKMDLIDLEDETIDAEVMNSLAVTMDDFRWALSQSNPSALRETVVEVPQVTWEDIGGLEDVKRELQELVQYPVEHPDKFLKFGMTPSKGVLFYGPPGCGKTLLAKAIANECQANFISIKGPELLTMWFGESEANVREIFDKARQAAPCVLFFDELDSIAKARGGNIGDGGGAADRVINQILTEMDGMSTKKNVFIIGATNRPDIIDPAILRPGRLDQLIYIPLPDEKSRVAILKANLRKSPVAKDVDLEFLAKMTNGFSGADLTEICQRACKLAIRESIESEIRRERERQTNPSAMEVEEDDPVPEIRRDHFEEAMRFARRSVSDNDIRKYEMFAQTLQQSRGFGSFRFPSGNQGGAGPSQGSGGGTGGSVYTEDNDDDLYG

With `CC(C)CN(CCCN1CCN(CCCN2CCc3[nH]c4ccc(F)cc4c3C2)CC1)CC(C)C` [Compound 3.1d, N,N-diisobutyl-3-(4-(3-(8-fluoro-1,3,4,5-tetrahydro-1H-pyrido[4,3-b]indol-2-yl)propyl)piperazin-1-yl)propylamine] the IC50 (secreted Aβ1-42) was 2.1 µM, the CC50 at 24 h [1] was 15 µM and the “VCP (competition efficiency, loss of signal compared to the control)” value [2] was 96%.
